Results taken from patent publication US9464326B2, “Total and phosphorylated IL-1 receptor-associated kinase-1 and IL-1 receptor-associated kinase-4 as a biomarker for cancer progression and chemotherapy resistance” (University of Maryland, Baltimore, priority 2012, dated 2016).

Assays:
CCRF-CEM T-ALL cells = assay: Antibody (protein) array of apoptosis-related proteins; details: IRAK-1,-4 inhibitor vs DMSO, 72 hours, normalised to GAPDH
Protocol: We also used a protein array from Full Moon Biosystems (Sunnyvale, Calif., USA). For these experiments, purified T-ALL cells were incubated for 48 hours in the presence of IRAK-1,-4 inhibitor (5 μM) or an equal volume of vehicle (DMSO). Then, total protein was extracted, and the levels of various proteins were measured according to the manufacturer's protocol.

A375 melanoma cells = assay: Apoptosis by annexin-V/PI flow cytometry in A375; format: cell-based, human
Protocol: FIG. 8. IRAK-1,-4 inhibition sensitized melanoma cells to vinblastine-mediated cytotoxicity. (A) A375 and Malme-3M melanoma cells were cultured with or without 2.5 μM of IRAK-1,-4 and in the presence varying concentrations of vinblastine, cisplatin or 5′ Fluorouracil. Forty-eight hours later apoptosis was evaluated by staining cells with annexin-V and propidium iodide and analyzed by flow cytometry. (B) A375 cells were transfected via electroporation with siRNA-IRAK-1,-4. IRAK-1 protein levels were examined by Western blotting. […], A375-psiRNA-hIRAK-1, A375-psiRNA-hIRAK-4, or cells expressing both psiRNA-hIRAK-1 and -4 were cultured in the presence of vinblastine (100 nmol/L) for 48 hours and apoptosis was examined by flow cytometry. (C) A375 melanoma cells were cultured in the presence of vehicle alone (DMSO) or various concentrations of IRAK-1,-4. Forty-eight hours later cell lysates were used to analyze the expression of levels of cleaved PARP or caspase-3 by Western blots. (D) A375 melanoma cells were cultured with or without 2.5 μM of IRAK.-1,-4 and in the presence or absence of vinblastine for 48 hrs. PARP and caspase-3 levels were determined by Western blot.
FIG. 20. Role of TLR-induced cytokines and NF-kB on cell survival. […] The percentage of apoptotic cells was measured by staining cells with Annexin and PI 48 hours later and analyzed by flow cytometry. […] After 48 hours, apoptosis was measured by flow cytometry. […] Apoptosis was measured 48 hours later by flow cytometry.
The TLR1-TLR2 ligand tripalmitoyl-S-(bis(palmitoyloxy)propyl)-Cys-Ser-(Lys)3-Lys (Pam3Cys) was purchased from Invivogen (San Diego, Calif., USA). […] In some experiments cells were treated with the indicated concentrations of IRAK.-1,-4 inhibitor and vinblastine, cisplatin, and 5-fluorouracil (Sigma-Aldrich, St. Louis, Mo.), and apoptosis was quantitated by flow cytometry after staining cells with FITC-labeled annexin-V (BD Pharmingen, San Jose, Calif.) and propidium iodide (PI; Sigma-Aldrich).

O=C(Nc1nc2ccccc2n1CCN1CCOCC1)c1cccc([N+](=O)[O-])c1 [IRAK-1,-4 inhibitor]
Fold Change: AFX(Ab-197) (CCRF-CEM T-ALL cells): −2.62 fold | Fold Change: AFX(Phospho-Ser 97) (CCRF-CEM T-ALL cells): −2.03 fold | Fold Change: BAD(Ab-112) (CCRF-CEM T-ALL cells): −1.76 fold | Fold Change: BAD(Phospho-Ser112) (CCRF-CEM T-ALL cells): −2.44 fold | Fold Change: BCL-XL(Phospho-Ser62) (CCRF-CEM T-ALL cells): −2.42 fold | Fold Change: CDC2(Phospho-Tyr15) (CCRF-CEM T-ALL cells): −2.33 fold | Fold Change: FKHR(Ab-319) (CCRF-CEM T-ALL cells): −2.54 fold | Fold Change: FKHRL1(Ab-253) (CCRF-CEM T-ALL cells): −2.36 fold | Fold Change: FKHRL1(Phospho-Ser253) (CCRF-CEM T-ALL cells): −2.53 fold | Fold Change: GSK3 alpha(Phospho-Ser21) (CCRF-CEM T-ALL cells): −2.13 fold | Fold Change: HSP27(Phospho-Ser15) (CCRF-CEM T-ALL cells): −2.20 fold | Fold Change: IKB-alpha(Ab-32/36) (CCRF-CEM T-ALL cells): −1.96 fold | Fold Change: IKB-alpha(Phospho-Ser32/Phospho-Ser36) (CCRF-CEM T-ALL cells): −2.95 fold | Fold Change: IRS-1(Phospho-Ser639) (CCRF-CEM T-ALL cells): −2.37 fold | Fold Change: JAK2(Phospho-Tyr221) (CCRF-CEM T-ALL cells): −2.05 fold | Fold Change: NFKB-p65(Ab-435) (CCRF-CEM T-ALL cells): −1.39 fold | Fold Change: NFKB-p65(Phospho-Thr435) (CCRF-CEM T-ALL cells): −2.39 fold | Fold Change: NFKB-p100/p52(Phospho-Ser869) (CCRF-CEM T-ALL cells): −2.50 fold | Fold Change: NFKB-p105/p50(Phospho-Ser337) (CCRF-CEM T-ALL cells): −4.06 fold | Fold Change: PTEN(Phospho-Ser380) (CCRF-CEM T-ALL cells): 1.35 fold | Fold Change: Raf1(Phospho-Ser338) (CCRF-CEM T-ALL cells): −2.46 fold | Fold Change: STAT1(Phospho-Ser727) (CCRF-CEM T-ALL cells): −2.17 fold | Fold Change: STAT3(Phospho-Ser727) (CCRF-CEM T-ALL cells): −2.11 fold | Fold Change: p44/42 MAP Kinase(Phospho-Tyr204) (CCRF-CEM T-ALL cells): −2.24 fold | Fold Change: p53(Ab-46) (CCRF-CEM T-ALL cells): −1.39 fold | Fold Change: p53(Phospho-Ser46) (CCRF-CEM T-ALL cells): −2.27 fold | sensitivity to vinblastine (apoptosis) (A375 melanoma cells; 2.5 μmol/L IRAK-1,-4 inhibitor with 0-200 nmol/L vinblastine, 48 h): increased sensitivity | cisplatin's cytotoxicity (A375 melanoma cells; IRAK-1,-4 inhibitor with 0-50 nmol/L cisplatin): did not increase | melanoma apoptosis (A375 melanoma cells; inhibitor alone, absence of vinblastine): moderately increased
